Article PMC9525273 (Nature Communications, 2022)
“And” between values parts separate entries of the source, which are not always exact repeats. Equal entries are not always repeated.

Molecular target: T1, PfATP4^WT (membranes from Dd2-Polδ parasites) (Plasmodium falciparum, UniProt A0A143ZZK9)
T1 sequence (A0A143ZZK9 1-1264): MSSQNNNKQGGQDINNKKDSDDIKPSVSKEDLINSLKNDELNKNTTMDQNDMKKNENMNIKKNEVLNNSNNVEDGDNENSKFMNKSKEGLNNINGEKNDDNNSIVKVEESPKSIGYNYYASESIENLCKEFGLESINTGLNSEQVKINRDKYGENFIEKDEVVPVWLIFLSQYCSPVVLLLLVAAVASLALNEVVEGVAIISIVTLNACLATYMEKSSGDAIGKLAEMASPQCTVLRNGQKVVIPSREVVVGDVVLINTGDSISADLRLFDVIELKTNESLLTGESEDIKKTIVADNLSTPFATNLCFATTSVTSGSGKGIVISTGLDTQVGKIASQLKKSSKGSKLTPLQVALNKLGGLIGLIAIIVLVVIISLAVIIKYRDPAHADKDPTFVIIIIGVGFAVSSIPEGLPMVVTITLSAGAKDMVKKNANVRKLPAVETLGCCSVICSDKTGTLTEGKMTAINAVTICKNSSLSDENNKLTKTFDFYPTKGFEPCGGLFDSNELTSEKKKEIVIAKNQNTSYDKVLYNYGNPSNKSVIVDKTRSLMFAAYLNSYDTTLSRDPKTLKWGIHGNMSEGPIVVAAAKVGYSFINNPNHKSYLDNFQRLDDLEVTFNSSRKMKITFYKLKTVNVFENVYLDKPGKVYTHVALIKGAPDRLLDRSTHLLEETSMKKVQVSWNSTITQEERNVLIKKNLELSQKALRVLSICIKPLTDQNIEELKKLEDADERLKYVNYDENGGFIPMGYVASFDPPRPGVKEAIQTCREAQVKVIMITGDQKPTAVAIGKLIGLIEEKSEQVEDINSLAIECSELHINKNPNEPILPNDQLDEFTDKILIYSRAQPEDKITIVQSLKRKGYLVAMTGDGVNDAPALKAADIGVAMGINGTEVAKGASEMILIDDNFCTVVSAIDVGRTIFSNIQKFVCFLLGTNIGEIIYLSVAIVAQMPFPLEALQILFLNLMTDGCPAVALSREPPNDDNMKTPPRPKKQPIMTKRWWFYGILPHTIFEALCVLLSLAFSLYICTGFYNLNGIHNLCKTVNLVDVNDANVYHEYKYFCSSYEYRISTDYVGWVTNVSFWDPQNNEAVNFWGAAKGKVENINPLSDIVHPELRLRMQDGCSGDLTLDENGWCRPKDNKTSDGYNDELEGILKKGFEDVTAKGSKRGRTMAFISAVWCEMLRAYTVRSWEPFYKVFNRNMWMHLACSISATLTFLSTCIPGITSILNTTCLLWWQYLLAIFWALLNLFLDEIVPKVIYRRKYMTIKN
Assay: Membrane ATPase assay, ATP4-associated (Na+-dependent) ATPase activity
Type: biochemical
Settings: for IC50 for inhibition of ATP4-associated ATPase activity, MEAN: Dd2-Polδ membranes, source data of Table 1 (nM there); for IC50 for ATP4-associated ATPase activity: membranes from Dd2-Polδ, mean ± SEM
Method: Membranes from isolated P. falciparum or extracellular T. gondii parasites were prepared by lysing parasites in ice-cold deionized water containing a 1:500 dilution of Protease Inhibitor Cocktail Set III (Merck Millipore), then washing the membrane preparation three times in ice-cold deionized water (with protease inhibitors present for the first two washes)[15]. Protein concentrations in the membrane preparations were measured using a Bradford assay. The PiColorLock Gold Phosphate Detection System (Innova Biosciences) was used to measure the production of Pi from hydrolysis of ATP[15]. Membrane preparations were diluted in either a high Na^+ solution (yielding final conditions in the reactions of 150 mM NaCl, 20 mM KCl, 2 mM MgCl2, 50 mM Tris, pH 7.2) or a Na^+-free solution (yielding final conditions of 150 mM choline chloride, 20 mM KCl, 2 mM MgCl2, 50 mM Tris, pH 7.2) to achieve a total protein concentration of 50 μg/mL. […] The reactions were performed at 37 °C, and were initiated by the addition of 1 mM ATP (Na2ATP۰3H2O; MP Biomedicals) and terminated 10 min later by adding 100 μL of reaction mixture (in duplicate) to 25 μL “Gold mix” in a 96-well plate. “Stabiliser” was added 3 min later, and the plates incubated at room temperature in the dark for 60 min before measuring absorbance at 635 nm. Background values (averaged from wells containing all components, but to which ATP was not added until after the membrane was exposed to Gold mix) were subtracted from the data. For each treatment, the ATPase activity associated with the (Na^+-dependent) PfATP4 and TgATP4 proteins was calculated by subtracting data obtained in the low Na^+ condition (containing only the 2 mM Na^+ introduced on addition of 1 mM Na2ATP) from that obtained in the high Na^+ condition.

N#Cc1cc(NC(=O)[C@H]2c3ccccc3C(=O)N(CC(F)(F)F)[C@@H]2c2cccnc2)ccc1F [(+)-SJ733]
IC50 for inhibition of ATP4-associated ATPase activity, MEAN (MEAN): 5.23 | IC50 for ATP4-associated ATPase activity: 5.2 ± 2.3 (3) nM

N#Cc1cc(NC(=O)[C@H]2c3ccccc3C(=O)N(CC(F)(F)F)[C@@H]2c2cccnc2)ccc1F [(+)SJ733]
PfATP4-associated ATPase activity (% of control) (Dd2-Polδ, [(+)SJ733] 0.122 nM, MEAN): 74.2 % of control | PfATP4-associated ATPase activity (% of control) (Dd2-Polδ, [(+)SJ733] 0.122 nM, single experiments, 0.000122 µM): 57.4 % of control and 86.4 % of control and 78.7 % of control | PfATP4-associated ATPase activity (% of control) (Dd2-Polδ, [(+)SJ733] 0.244 nM, MEAN): 71.3 % of control | PfATP4-associated ATPase activity (% of control) (Dd2-Polδ, [(+)SJ733] 0.244 nM, single experiments, 0.000244 µM): 51.9 % of control and 74.9 % of control and 87.1 % of control | PfATP4-associated ATPase activity (% of control) (Dd2-Polδ, [(+)SJ733] 0.5 nM, MEAN): 85.1 % of control | PfATP4-associated ATPase activity (% of control) (Dd2-Polδ, [(+)SJ733] 1.0 nM, MEAN): 59.1 % of control | PfATP4-associated ATPase activity (% of control) (Dd2-Polδ, [(+)SJ733] 2.0 nM, MEAN): 64.2 % of control | PfATP4-associated ATPase activity (% of control) (Dd2-Polδ, [(+)SJ733] 3.9 nM, MEAN): 46.7 % of control | PfATP4-associated ATPase activity (% of control) (Dd2-Polδ, [(+)SJ733] 7.8 nM, MEAN): 32.8 % of control | PfATP4-associated ATPase activity (% of control) (Dd2-Polδ, [(+)SJ733] 15.6 nM, MEAN): 21.9 % of control | PfATP4-associated ATPase activity (% of control) (Dd2-Polδ, [(+)SJ733] 31.3 nM, MEAN): 30.9 % of control | PfATP4-associated ATPase activity (% of control) (Dd2-Polδ, [(+)SJ733] 62.5 nM, MEAN): 7.7 % of control | PfATP4-associated ATPase activity (% of control) (Dd2-Polδ, [(+)SJ733] 250 nM, MEAN): 11.2 % of control | PfATP4-associated ATPase activity (% of control) (Dd2-Polδ, [(+)SJ733] 500 nM, MEAN): -2.6 % of control | PfATP4-associated ATPase activity (% of control) (Dd2-Polδ, [(+)SJ733] 1000 nM, MEAN): -8.2 % of control | PfATP4-associated ATPase activity (% of control) (Dd2-Polδ, [(+)SJ733] 2000 nM, MEAN): 7.9 % of control | PfATP4-associated ATPase activity (% of control) (Dd2-Polδ, [(+)SJ733] 4000 nM, MEAN): -17.1 % of control | PfATP4-associated ATPase activity (% of control) (Dd2-Polδ, [(+)SJ733] 8000 nM, MEAN): -14.6 % of control

C[C@H]1Cc2c([nH]c3cc(Cl)c(F)cc23)[C@@]2(N1)C(=O)Nc1ccc(Cl)cc12 [Cipargamin]
IC50 for inhibition of ATP4-associated ATPase activity, MEAN (MEAN): 2.51 | remaining activity at 3.76 pM (Dd2-Polδ, [Cipargamin] 0.00376 nM, MEAN, read-out: PfATP4-associated ATPase activity (% of control)): 75.4% | remaining activity at 11 pM (Dd2-Polδ, [Cipargamin] 0.011 nM, MEAN, read-out: PfATP4-associated ATPase activity (% of control)): 75% | PfATP4-associated ATPase activity (% of control) (Dd2-Polδ, [Cipargamin] 0.011 nM, single experiments, 11 pM): 92.1 % of control and 50.6 % of control and 82.7 % of control and 74.5 % of control | remaining activity at 34 pM (Dd2-Polδ, [Cipargamin] 0.034 nM, MEAN, read-out: PfATP4-associated ATPase activity (% of control)): 76% | remaining activity at 0.000102 µM (Dd2-Polδ, [Cipargamin] 0.102 nM, MEAN, read-out: PfATP4-associated ATPase activity (% of control)): 66.1% | remaining activity at 0.000305 µM (Dd2-Polδ, [Cipargamin] 0.305 nM, MEAN, read-out: PfATP4-associated ATPase activity (% of control)): 60.1% | PfATP4-associated ATPase activity (% of control) (Dd2-Polδ, [Cipargamin] 0.305 nM, single experiments, 0.000305 µM): 59.8 % of control and 42.8 % of control and 70.9 % of control and 66.9 % of control | remaining activity at 0.000914 µM (Dd2-Polδ, [Cipargamin] 0.914 nM, MEAN, read-out: PfATP4-associated ATPase activity (% of control)): 32.6% | remaining activity at 0.002743 µM (Dd2-Polδ, [Cipargamin] 2.743 nM, MEAN, read-out: PfATP4-associated ATPase activity (% of control)): 25.1% | remaining activity at 0.00823 µM (Dd2-Polδ, [Cipargamin] 8.230 nM, MEAN, read-out: PfATP4-associated ATPase activity (% of control)): -9.5% | remaining activity at 0.024691 µM (Dd2-Polδ, [Cipargamin] 24.691 nM, MEAN, read-out: PfATP4-associated ATPase activity (% of control)): -14.7% | remaining activity at 0.074074 µM (Dd2-Polδ, [Cipargamin] 74.074 nM, MEAN, read-out: PfATP4-associated ATPase activity (% of control)): -19.7% | remaining activity at 0.222222 µM (Dd2-Polδ, [Cipargamin] 222.222 nM, MEAN, read-out: PfATP4-associated ATPase activity (% of control)): -16.9% | remaining activity at 0.666667 µM (Dd2-Polδ, [Cipargamin] 666.667 nM, MEAN, read-out: PfATP4-associated ATPase activity (% of control)): -29.5% | remaining activity at 1.25 pM (Dd2-Polδ, [Cipargamin] […], MEAN, read-out: PfATP4-associated ATPase activity (% of control)): 85.7% | IC50 for ATP4-associated ATPase activity: 2.5 ± 0.8 (4) nM
